According to patent publication US9000159B2 (Glenmark Pharmaceuticals, S.A., priority 2009, dated 2015):

Target: T1, Human TRPA1 (Homo sapiens, UniProt O75762)
T1 construct: expressed in transfected cells; host or cells: CHO cells
Assay: 45Calcium uptake assay: inhibition of AITC induced cellular uptake of radioactive calcium
Assay type: cell-based
Details: AITC (30 μM) induced 45Ca uptake, Human TRPA1 expressing CHO cells; for inhibition at 1 µM: 1.0 μM test compound, read-out: Percentage inhibition at 1.0 μM; for inhibition at 10 µM: 10.0 μM test compound, read-out: Percentage inhibition at 10.0 μM; for IC50: read-out: Human IC50 value (range)
Procedure, shortened: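 CHO cells stably expressing human TRPA1 (~50,000/well) preincubated 10 min with compound (0.5% DMSO, medium with 0.1% BSA, 1.8 mM CaCl2), then 30 μM AITC plus 5 μCi/ml 45Ca2+ for 3 min. Lysate radioactivity counted by scintillation; IC50 by nonlinear regression of % maximal uptake.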

T1 sequence (O75762 whole entry): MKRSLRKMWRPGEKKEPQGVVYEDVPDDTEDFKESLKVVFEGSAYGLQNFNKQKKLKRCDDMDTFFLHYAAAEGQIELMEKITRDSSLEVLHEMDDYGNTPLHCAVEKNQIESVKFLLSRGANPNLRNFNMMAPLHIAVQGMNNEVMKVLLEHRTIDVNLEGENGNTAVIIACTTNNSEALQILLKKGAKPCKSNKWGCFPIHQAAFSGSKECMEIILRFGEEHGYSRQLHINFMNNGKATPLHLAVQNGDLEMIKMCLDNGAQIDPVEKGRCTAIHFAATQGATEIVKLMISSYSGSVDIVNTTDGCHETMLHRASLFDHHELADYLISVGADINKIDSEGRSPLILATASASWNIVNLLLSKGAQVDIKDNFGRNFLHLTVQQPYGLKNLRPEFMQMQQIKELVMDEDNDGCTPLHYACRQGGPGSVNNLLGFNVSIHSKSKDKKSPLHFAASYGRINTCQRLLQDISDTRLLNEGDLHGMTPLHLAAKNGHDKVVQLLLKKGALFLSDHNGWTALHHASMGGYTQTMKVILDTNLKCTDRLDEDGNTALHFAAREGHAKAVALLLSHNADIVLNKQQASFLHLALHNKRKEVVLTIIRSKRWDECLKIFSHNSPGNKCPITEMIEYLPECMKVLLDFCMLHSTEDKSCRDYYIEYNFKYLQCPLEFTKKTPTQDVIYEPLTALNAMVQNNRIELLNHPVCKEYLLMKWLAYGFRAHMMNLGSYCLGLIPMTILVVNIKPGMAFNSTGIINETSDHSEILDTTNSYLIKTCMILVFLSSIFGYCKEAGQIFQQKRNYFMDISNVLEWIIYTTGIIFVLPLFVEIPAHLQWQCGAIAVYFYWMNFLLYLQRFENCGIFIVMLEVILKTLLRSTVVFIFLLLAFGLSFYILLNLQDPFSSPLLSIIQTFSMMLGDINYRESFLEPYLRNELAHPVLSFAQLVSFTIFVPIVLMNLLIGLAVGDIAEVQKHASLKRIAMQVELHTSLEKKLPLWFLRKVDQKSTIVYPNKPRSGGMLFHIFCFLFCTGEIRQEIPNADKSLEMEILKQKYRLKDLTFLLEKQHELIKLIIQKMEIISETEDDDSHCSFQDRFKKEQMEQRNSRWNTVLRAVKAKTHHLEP

Row | inhibition at 1 µM | inhibition at 10 µM | IC50 | SMILES
1 | 97.7% | 99.6% | < 50 nM | Cn1nc2c(c1CC(=O)Nc1nc(-c3ccc(C(F)(F)F)c(F)c3)cs1)c(=O)n(C)c(=O)n2C [Example 54, N-[4-(3-Fluoro-4-trifluoromethylphenyl)-1,3-thiazol-2-yl]-2-(2,5,7-trimethyl-4,6-dioxo-4,5,6,7-tetrahydro-2H-pyrazolo[3,4-d]pyrimidin-3-yl)acetamide]
2 | 0% | 19.8% |  | Cn1nc2c(c1CC(=O)Nc1nc(-c3ccc(F)cc3F)cs1)c(=O)n(C)c(=O)n2C [Example 50, N-[4-(2,4-Difluorophenyl)-1,3-thiazol-2-yl]-2-(2,5,7-trimethyl-4,6-dioxo-4,5,6,7-tetrahydro-2H-pyrazolo[3,4-d]pyrimidin-3-yl)acetamide]
3 | 38.4% | 38.7% |  | Cn1c(=O)c2c(ccn2CC(=O)Nc2nc(-c3cc(F)c(OCC4CCC4)c(F)c3)cs2)n(C)c1=O [Example 18, 2-(1,3-Dimethyl-2,4-dioxo-1,2,3,4-tetrahydro-5H-pyrrolo[3,2-d]pyrimidin-5-yl)-N-{4-[4-(cyclobutylmethoxy)-3,5-difluorophenyl]-1,3-thiazol-2-yl}acetamide]
4 | 92.5% | 92.5% | < 50 nM | Cn1c(=O)c2c(ccn2CC(=O)Nc2nc(-c3cc(Cl)c(OCCC(F)(F)F)c(Cl)c3)cs2)n(C)c1=O [Example 14, N-{4-[3,5-Dichloro-4-(3,3,3-trifluoropropoxy)phenyl]-1,3-thiazol-2-yl}-2-(1,3-dimethyl-2,4-dioxo-1,2,3,4-tetrahydro-5H-pyrrolo[3,2-d]pyrimidin-5-yl)acetamide]
5 | 94% | 100% | < 50 nM | Cn1c(=O)c2c(cnn2CC(=O)Nc2nc(-c3cc(F)c(OCC4CCC4)c(F)c3)cs2)n(C)c1=O [Example 81, N-{4-[4-(Cyclobutylmethoxy)-3,5-difluorophenyl]-1,3-thiazol-2-yl}-2-(4,6-dimethyl-5,7-dioxo-4,5,6,7-tetrahydro-1H-pyrazolo[4,3-d]pyrimidin-1-yl)acetamide]
6 | 22.6% | 67.7% |  | Cn1c(=O)c2c(ccn2CC(=O)Nc2nc(-c3cc(F)c(OCc4ccccc4C(F)(F)F)c(F)c3)cs2)n(C)c1=O [Example 20, 2-(1,3-Dimethyl-2,4-dioxo-1,2,3,4-tetrahydro-5H-pyrrolo[3,2-d]pyrimidin-5-yl)-N-{4-[3,5-difluoro-4-[2-(trifluoromethyl)benzyloxy]phenyl)-1,3-thiazol-2-yl}acetamide]
7 | 99.5% | 99.7% | < 50 nM | Cc1cc2c(c(=O)n(C)c(=O)n2C)n1CC(=O)Nc1nc(-c2cc(F)c(OCC(C)(C)C)c(Cl)c2)cs1 [Example 28]
8 | 42.4% | 52.8% |  | CC(C)COc1c(F)cc(-c2csc(NC(=O)Cn3ccc4c3c(=O)n(C)c(=O)n4C)n2)cc1F [Example 6, 2-(1,3-Dimethyl-2,4-dioxo-1,2,3,4-tetrahydro-5H-pyrrolo[3,2-d]pyrimidin-5-yl)-N-{4-[4-(2-methylpropoxy)-3,5-difluorophenyl]-1,3-thiazol-2-yl}acetamide]
9 | 97.3% | 99.8% | < 50 nM | Cn1c(=O)c2c(cnn2CC(=O)Nc2nc(-c3ccc(OCC(C)(C)C)c(F)c3)cs2)n(C)c1=O [Example 69, N-{4-[4-(2,2-Dimethylpropoxy)-3-fluorophenyl]-1,3-thiazol-2-yl}-2-(4,6-dimethyl-5,7-dioxo-4,5,6,7-tetrahydro-1H-pyrazolo[4,3-d]pyrimidin-1-yl)acetamide]
10 | 86% | 98.3% | 50 to 100 nM | Cn1nc2c(c1CC(=O)Nc1nc(-c3ccc(OC(F)F)c(F)c3)cs1)c(=O)n(C)c(=O)n2C [Example 61, N-{4-[4-(Difluoromethoxy)-3-fluorophenyl]-1,3-thiazol-2-yl}-2-(2,5,7-trimethyl-4,6-dioxo-4,5,6,7-tetrahydro-2H-pyrazolo[3,4-d]pyrimidin-3-yl)acetamide]
11 | 92.8% | 99% | 50 to 100 nM | Cc1nn(CC(=O)Nc2nc(-c3cc(F)c(OCC(C)(C)C)c(F)c3)cs2)c2c(=O)n(C)c(=O)n(C)c12 [Example 82, N-[4-(3,5-Difluoro-4-(2,2-dimethylpropoxy)phenyl)-1,3-thiazol-2-yl]-2-(3,4,6-trimethyl-5,7-dioxo-4,5,6,7-tetrahydro-1H-pyrazolo[4,3-d]pyrimidin-1-yl)acetamide]
12 | 87.4% | 95.3% | 50 to 100 nM | Cc1cc2c(c(=O)n(C)c(=O)n2C)n1CC(=O)Nc1nc(-c2ccc(OCC(C)(C)C)c(F)c2)cs1 [Example 31, N-{4-[4-(2,2-Dimethylpropoxy)-3-fluorophenyl]-1,3-thiazol-2-yl}-2-(1,3,6-trimethyl-2,4-dioxo-1,2,3,4-tetrahydro-5H-pyrrolo[3,2-d]pyrimidin-5-yl)acetamide]
13 | 95.6% | 97.1% | < 50 nM | Cc1cc2c(c(=O)n(C)c(=O)n2C)n1CC(=O)Nc1nc(-c2cc(Cl)c(OCC(C)(C)C)c(Cl)c2)cs1 [Example 29]
14 | 97.6% | 99.3% | < 50 nM | Cn1nc2c(c1CC(=O)Nc1nc(-c3ccc(OC(F)(F)F)c(F)c3)cs1)c(=O)n(C)c(=O)n2C [Example 59, N-{4-[3-Fluoro-4-(trifluoromethoxy)phenyl]-1,3-thiazol-2-yl}-2-(2,5,7-trimethyl-4,6-dioxo-4,5,6,7-tetrahydro-2H-pyrazolo[3,4-d]pyrimidin-3-yl)acetamide]
15 | 17.2% | 83.9% |  | Cn1c(=O)c2c(cnn2CC(=O)Nc2cc(-c3ccc(Br)cc3)on2)n(C)c1=O [Example 84, N-[5-(4-Bromophenyl)isoxazol-3-yl]-2-(4,6-dimethyl-5,7-dioxo-4,5,6,7,-tetrahydro-1H-pyrazolo[4,3-d]pyrimidin-1-yl)acetamide]
16 | 87.4% | 92.2% | 50 to 100 nM | Cn1c(=O)c2c(ccn2CC(=O)Nc2nc(-c3ccc(OCC(F)(F)F)c(Br)c3)cs2)n(C)c1=O [Example 23, N-{4-[3-Bromo-4-(2,2,2-trifluoroethoxy)phenyl]-1,3-thiazol-2-yl}-2-(1,3-dimethyl-2,4-dioxo-1,2,3,4-tetrahydro-5H-pyrrolo[3,2-d]pyrimidin-5-yl)acetamide]
17 | 85.9% | 97.7% | > 100 nM | Cn1c(=O)c2c(cnn2CC(=O)Nc2nc(-c3cc(F)c(OC(F)F)c(F)c3)cs2)n(C)c1=O [Example 72, N-{4-[4-(Difluoromethoxy)-3,5-difluorophenyl]-1,3-thiazol-2-yl}-2-(4,6-dimethyl-5,7-dioxo-4,5,6,7-tetrahydro-1H-pyrazolo[4,3-d]pyrimidin-1-yl)acetamide]
18 | 96.2% | 98.2% | < 50 nM | Cn1nc2c(c1CC(=O)Nc1nc(-c3ccc(C(F)(F)F)cc3F)cs1)c(=O)n(C)c(=O)n2C [Example 56, N-{4-[2-Fluoro-4-(trifluoromethyl)phenyl]-1,3-thiazol-2-yl}-2-(2,5,7-trimethyl-4,6-dioxo-4,5,6,7-tetrahydro-2H-pyrazolo[3,4-d]pyrimidin-3-yl)acetamide]
19 | 38% | 86.5% |  | Cn1c(=O)c2c(CC(=O)Nc3nc(-c4ccc(C(F)(F)F)c(F)c4)cs3)cn(C)c2n(C)c1=O [Example 41, N-{4-[3-Fluoro-4-(trifluoromethyl)phenyl]-1,3-thiazol-2-yl}-2-(1,3,7-trimethyl-2,4-dioxo-2,3,4,7-tetrahydro-1H-pyrrolo[2,3-d]pyrimidin-5-yl)acetamide]
20 | 92.8% | 96.3% | < 50 nM | Cc1cc2c(c(=O)n(C)c(=O)n2C)n1CC(=O)Nc1nc(-c2ccc(OCC(C)(C)C)c(Cl)c2)cs1 [Example 32, N-{4-[3-Chloro-4-(2,2-dimethylpropoxy)phenyl]-1,3-thiazol-2-yl}-2-(1,3,6-trimethyl-2,4-dioxo-1,2,3,4-tetrahydro-5H-pyrrolo[3,2-d]pyrimidin-5-yl)acetamide]
21 | 93.6% | 100% | < 50 nM | Cc1cc2c(c(=O)n(C)c(=O)n2C)n1CC(=O)Nc1nc(-c2cc(F)c(OCC(F)(F)F)c(Cl)c2)cs1 [Example 30]
22 | 97.8% | 98.3% | < 50 nM | Cn1nc2c(c1CC(=O)Nc1nc(-c3cc(F)c(OC(F)F)c(F)c3)cs1)c(=O)n(C)c(=O)n2C [Example 64, N-{4-[4-(Difluoromethoxy)-3,5-difluorophenyl]-1,3-thiazol-2-yl}-2-(2,5,7-trimethyl-4,6-dioxo-4,5,6,7-tetrahydro-2H-pyrazolo[3,4-d]pyrimidin-3-yl)acetamide]
